Results as given in BindingDB's records for doi:10.1016/j.bmc.2017.03.009 (Wuhan Institute of Technology, 2017).

assay: Inhibition of HIV1 RES056 reverse transcriptase K103N/Y181C double mutant infected in human MT4 cells assessed as protection against virus-induced cytopathic effect measured at 5 days post infection by MTT assay

| Compound | EC50 [µM] |
| --- | --- |
| N#Cc1ccc(Nc2nccc(OCc3ccc(Br)cc3)n2)cc1 | > 16 |
| N#Cc1ccc(Nc2nccc(OCc3cccc(C(F)(F)F)c3)n2)cc1 | > 118 |
| COc1cc(COc2ccnc(Nc3ccc(C#N)cc3)n2)cc(OC)c1 | > 44 |
| N#Cc1ccc(Nc2nccc(OCc3ccc(Br)cc3F)n2)cc1 | > 141 |
| N#Cc1ccc(Nc2nccc(OCc3ccccc3C#N)n2)cc1 | > 113 |
| N#Cc1ccc(Nc2nccc(OCc3cccc(C#N)c3)n2)cc1 | > 4.1 |
| N#Cc1ccc(Nc2nccc(OCc3ccccc3)n2)cc1 | > 13 |
| N#Cc1ccc(Nc2nccc(OCc3cccc4ccccc34)n2)cc1 | > 7.7 |
| N#Cc1ccc(Nc2nccc(OCc3ccc4ccccc4c3)n2)cc1 | > 212 |
| N#Cc1ccc(Nc2nccc(NCc3ccccn3)n2)cc1 | > 8.5 |
| Cc1cc(C)nc(Sc2ccnc(Nc3ccc(C#N)cc3)n2)n1 | > 224 |
| N#Cc1ccc(Nc2nccc(OCc3ccccc3Cl)n2)cc1 | > 146 |
| N#Cc1ccc(Nc2nccc(OCc3cccc(Cl)c3)n2)cc1 | > 153 |
| N#Cc1ccc(Nc2nccc(OCc3ccccc3Br)n2)cc1 | > 130 |
| N#Cc1ccc(Nc2nccc(OCc3cccc(Br)c3)n2)cc1 | > 221 |
| N#Cc1ccc(Nc2nccc(OCc3ccccc3F)n2)cc1 | > 151 |
| N#Cc1ccc(Nc2nccc(OCc3ccc(F)cc3)n2)cc1 | > 81 |
| Cc1ccccc1COc1ccnc(Nc2ccc(C#N)cc2)n1 | > 12 |
| Cc1cccc(COc2ccnc(Nc3ccc(C#N)cc3)n2)c1 | > 30 |
| COc1ccccc1COc1ccnc(Nc2ccc(C#N)cc2)n1 | > 8.9 |
| COc1cccc(COc2ccnc(Nc3ccc(C#N)cc3)n2)c1 | > 118 |
| N#Cc1ccc(Nc2nccc(OCc3ccccc3C(F)(F)F)n2)cc1 | > 173 |
| N#Cc1ccc(Nc2nccc(OCc3cc(F)ccc3Br)n2)cc1 | > 190 |
| N#Cc1ccc(COc2ccnc(Nc3ccc(C#N)cc3)n2)cc1 | > 209 |
| CN(C)c1ccnc(Nc2ccc(C#N)cc2)n1 | > 34 |
| N#Cc1ccc(Nc2nccc(OCc3cccc(F)c3)n2)cc1 | > 105 |
| Cc1ccc(COc2ccnc(Nc3ccc(C#N)cc3)n2)cc1 | > 81 |
| COc1ccc(COc2ccnc(Nc3ccc(C#N)cc3)n2)cc1 | > 102 |
| N#Cc1ccc(Nc2nccc(OCc3cccnc3)n2)cc1 | > 6.4 |
| N#Cc1ccc(Nc2nccc(OCc3ccc(Cl)cc3)n2)cc1 | > 156 |

assay: Inhibition of HIV-1 reverse transcriptase E138K mutant infected in human MT4 cells assessed as protection against virus-induced cytopathic effect measured at 5 days post infection by MTT assay

| Compound | EC50 [µM] |
| --- | --- |
| N#Cc1ccc(Nc2nccc(OCc3ccc(Br)cc3)n2)cc1 | > 16 |
| N#Cc1ccc(Nc2nccc(OCc3cccc(C(F)(F)F)c3)n2)cc1 | > 118 |
| COc1cc(COc2ccnc(Nc3ccc(C#N)cc3)n2)cc(OC)c1 | 0.23 |
| N#Cc1ccc(Nc2nccc(OCc3ccc(Br)cc3F)n2)cc1 | 35.8 |
| N#Cc1ccc(Nc2nccc(OCc3ccccc3C#N)n2)cc1 | > 113 |
| N#Cc1ccc(Nc2nccc(OCc3cccc(C#N)c3)n2)cc1 | > 4.1 |
| N#Cc1ccc(Nc2nccc(OCc3ccccc3)n2)cc1 | 1.8 |
| N#Cc1ccc(Nc2nccc(OCc3cccc4ccccc34)n2)cc1 | 0.3 |
| N#Cc1ccc(Nc2nccc(OCc3ccc4ccccc4c3)n2)cc1 | 10 |
| N#Cc1ccc(Nc2nccc(NCc3ccccn3)n2)cc1 | 0.24 |
| Cc1cc(C)nc(Sc2ccnc(Nc3ccc(C#N)cc3)n2)n1 | > 224 |
| N#Cc1ccc(Nc2nccc(OCc3ccccc3Cl)n2)cc1 | > 146 |
| N#Cc1ccc(Nc2nccc(OCc3cccc(Cl)c3)n2)cc1 | > 153 |
| N#Cc1ccc(Nc2nccc(OCc3ccccc3Br)n2)cc1 | > 130 |
| N#Cc1ccc(Nc2nccc(OCc3cccc(Br)c3)n2)cc1 | 5 |
| N#Cc1ccc(Nc2nccc(OCc3ccccc3F)n2)cc1 | 0.3 |
| N#Cc1ccc(Nc2nccc(OCc3ccc(F)cc3)n2)cc1 | > 81 |
| Cc1ccccc1COc1ccnc(Nc2ccc(C#N)cc2)n1 | > 12 |
| Cc1cccc(COc2ccnc(Nc3ccc(C#N)cc3)n2)c1 | 1.18 |
| COc1ccccc1COc1ccnc(Nc2ccc(C#N)cc2)n1 | 2.1 |
| COc1cccc(COc2ccnc(Nc3ccc(C#N)cc3)n2)c1 | 1.1 |
| N#Cc1ccc(Nc2nccc(OCc3ccccc3C(F)(F)F)n2)cc1 | > 173 |
| N#Cc1ccc(Nc2nccc(OCc3cc(F)ccc3Br)n2)cc1 | > 190 |
| N#Cc1ccc(COc2ccnc(Nc3ccc(C#N)cc3)n2)cc1 | > 209 |
| CN(C)c1ccnc(Nc2ccc(C#N)cc2)n1 | > 34 |
| N#Cc1ccc(Nc2nccc(OCc3cccc(F)c3)n2)cc1 | 1.88 |
| Cc1ccc(COc2ccnc(Nc3ccc(C#N)cc3)n2)cc1 | 7.2 |
| COc1ccc(COc2ccnc(Nc3ccc(C#N)cc3)n2)cc1 | > 102 |
| N#Cc1ccc(Nc2nccc(OCc3cccnc3)n2)cc1 | > 6.4 |
| N#Cc1ccc(Nc2nccc(OCc3ccc(Cl)cc3)n2)cc1 | > 156 |
